Assay results as given in patent publication US20250171463A1 (BIOGEN MA INC., priority 2022, published 2025).

target: T1, EBP (Homo sapiens, UniProt Q15125); assay: EBP Functional Assay (EBP immunoaffinity LC-MS assay); format: biochemical; conditions: EBP enzyme from HEK293T cells; 30 min with inhibitor, then zymosterol-d5, 37° C., 4 h; percent conversion to dehydrolathosterol-d5 by LC-APCI MRM MS
T1 construct: HEK293T cells were utilized as the source of EBP enzyme; endogenous in cells; host or cells: HEK293T
Method: The EBP immunoaffinity (IA) LC-MS assay measures the potency of small molecule inhibitors of EBP by quantifying their concentration-dependent changes in the enzyme's substrate and product using liquid chromatography atmospheric pressure chemical ionization multiple reaction monitoring mass spectrometry (LC-APCI MRM MS). HEK293T cells were utilized as the source of EBP enzyme. The enzyme was incubated with the small molecule inhibitors at variable concentrations for 30 min. Deuterated form of EBP substrate, zymosterol-d5 (Avanti Polar Lipids, Cat #700068P-1 mg), was then added and the plate was incubated at 37° C. for 4 h. Finally, the sterol isomers were extracted and injected to LC-APCI MRM MS. MRM transition used for the quantification for both zymosterol and […] (substrate and product of EBP enzymatic reaction, respectively) is 372.3-203.2, CE 30 and DP 80 in positive ion mode. Percent conversion of the zymosterol-d5 to dehydrolathosterol-d5 was used to derive IC50 curves. Tasin-1 (1′-[(4-Methoxyphenyl)sulfonyl]-4-methyl-1,4′-bipiperidine, CAS 792927-06-1) was used as the reference small molecule inhibitor.
Percent conversion versus the compound concentration data were fit to the following 4-parameter logistic model to generate IC50 curves: […]

T1 sequence (Q15125 whole entry): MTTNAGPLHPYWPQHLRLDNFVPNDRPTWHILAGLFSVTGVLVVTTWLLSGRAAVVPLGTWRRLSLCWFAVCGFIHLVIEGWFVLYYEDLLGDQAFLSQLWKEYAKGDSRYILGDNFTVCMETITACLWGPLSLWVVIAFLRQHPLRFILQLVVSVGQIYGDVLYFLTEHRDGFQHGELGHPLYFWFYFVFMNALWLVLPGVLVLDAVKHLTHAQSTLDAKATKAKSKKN

**Q.** Which IC50 does the source give for Cc1cc(OC(F)(F)F)ccc1S(=O)(=O)N1CC2(CCN(C3CCOCC3)C2)C1 [Example 58] here?
**A.** < 100 nM

**Q.** With Cc1nc(C(C)(F)F)ccc1S(=O)(=O)N1CC2(CN(C(C)C3CCOCC3)C2)C1 (centres unmarked) [Example 82] as the compound, how does the IC50 read?
**A.** 250 to 4000 nM

**Q.** Cn1nc(C(F)(F)F)cc1S(=O)(=O)N1CC2(CN(CC3CC4(COC4)C3)C2)C1 [Example 115] was tested. Which IC50 did it give?
**A.** < 100 nM

**Q.** Cc1nc(C(F)(F)F)ccc1S(=O)(=O)N1CC2(CN(CC[C@@H]3COC(C)(C)O3)C2)C1 (racemic) [Example 173] was tested. Which IC50 did it give?
**A.** 100 to 250 nM

**Q.** For CCc1cc(C(F)(F)F)ncc1S(=O)(=O)N1CC2(CN(C3CC4(COC4)C3)C2)C1 [Example 125, 2-((4-ethyl-6-(trifluoromethyl)pyridin-3-yl)sulfonyl)-6-(2-oxaspiro[3.3]heptan-6-yl)-2,6-diazaspiro[3.3]heptane], which IC50 is on record?
**A.** 250 to 4000 nM

**Q.** For Cc1nc(C2CC2(F)F)ccc1S(=O)(=O)N1CC2(CN(C3CCOCC3)C2)C1 (centres unmarked) [Example 163, 2-((6-(2,2-difluorocyclopropyl)-2-methylpyridin-3-yl)sulfonyl)-6-(tetrahydro-2H-pyran-4-yl)-2,6-diazaspiro[3.3]heptane], which IC50 is on record?
**A.** < 100 nM

**Q.** How did the IC50 turn out when Cc1cc(C(F)(F)F)nc(C)c1S(=O)(=O)N1CC2(CN(C3CCOCC3)C2)C1 [Example 100, 2-((2,4-dimethyl-6-(trifluoromethyl)pyridin-3-yl)sulfonyl)-6-(tetrahydro-2H-pyran-4-yl)-2,6-diazaspiro[3.3]heptane] was run?
**A.** < 100 nM

**Q.** How did the IC50 turn out when Cc1nc(C(F)(F)F)ccc1S(=O)(=O)N1CC2(CN(C(C)C3(C)CCCO3)C2)C1 (mixture of isomers) [Example 135] was run?
**A.** < 100 nM

**Q.** How did the IC50 turn out when COc1ncc(Cl)cc1S(=O)(=O)N1CC2(CN(C3CCOCC3)C2)C1 [Example 99, 2-((5-chloro-2-methoxypyridin-3-yl)sulfonyl)-6-(tetrahydro-2H-pyran-4-yl)-2,6-diazaspiro[3.3]heptane] was run?
**A.** < 100 nM

**Q.** How did the IC50 turn out when Cc1nc(C(F)(F)F)ccc1S(=O)(=O)N1CC2(CN(CC3(O)CCOCC3)C2)C1 [Example 187, 4-((6-((2-methyl-6-(trifluoromethyl)pyridin-3-yl)sulfonyl)-2,6-diazaspiro[3.3]heptan-2-yl)methyl)tetrahydro-2H-pyran-4-ol] was run?
**A.** 250 to 4000 nM

**Q.** How did the IC50 turn out when CCc1nc(C(F)F)ccc1S(=O)(=O)N1CC2(CN(C3CCOCC3)C2)C1 [Example 205, 2-((6-(difluoromethyl)-2-ethylpyridin-3-yl)sulfonyl)-6-(tetrahydro-2H-pyran-4-yl)-2,6-diazaspiro[3.3]heptane] was run?
**A.** < 100 nM

**Q.** Which IC50 does the source give for CC1(C)CC(N2CCC3(CC2)CN(S(=O)(=O)c2ccc(OC(F)F)cc2)CCO3)CCO1 (centres unmarked) [Example 21, 4-((4-(Difluoromethoxy)phenyl)sulfonyl)-9-(2,2-dimethyltetrahydro-2H-pyran-4-yl)-1-oxa-4,9-diazaspiro[5.5]undecane] here?
**A.** 250 to 4000 nM

**Q.** For Cc1cc(C(F)(F)F)ncc1S(=O)(=O)N1CCC2(CCN(C3CCOCC3)C2)CC1 [Example 38], which IC50 is on record?
**A.** < 100 nM

**Q.** With Cc1nc(C(F)(F)F)ccc1S(=O)(=O)N1CC2(CCN(C3CCOCC3)C2)C1 [Example 56] as the compound, how does the IC50 read?
**A.** < 100 nM

**Q.** Which IC50 does the source give for Cc1nc(C(F)(F)F)ccc1S(=O)(=O)N1CC2(C1)CN([C@H]1C[C@]3(CCO3)C1)C2 [Example 70, 2-((2-methyl-6-(trifluoromethyl)pyridin-3-yl)sulfonyl)-6-((4s,6s)-1-oxaspiro[3.3]heptan-6-yl)-2,6-diazaspiro[3.3]heptane] here?
**A.** < 100 nM

**Q.** Cc1nc(C(C)(F)F)ccc1S(=O)(=O)N1CC2(CN(CC3(C)CCOCC3)C2)C1 [Example 83] was tested. Which IC50 did it give?
**A.** 100 to 250 nM

**Q.** Which IC50 does the source give for Cc1nc(C2(C(F)(F)F)CC2)ccc1S(=O)(=O)N1CC2(CN(CC3CCOCC3)C2)C1 [Example 191, 2-((2-methyl-6-(1-(trifluoromethyl)cyclopropyl)pyridin-3-yl)sulfonyl)-6-((tetrahydro-2H-pyran-4-yl)methyl)-2,6-diazaspiro[3.3]heptane] here?
**A.** < 100 nM

**Q.** Which IC50 does the source give for Cc1ccc(S(=O)(=O)N2CC3(CN(C4CCOCC4)C3)C2)c(C(F)(F)F)n1 [Example 105, 2-((6-methyl-2-(trifluoromethyl)pyridin-3-yl)sulfonyl)-6-(tetrahydro-2H-pyran-4-yl)-2,6-diazaspiro[3.3]heptane] here?
**A.** 100 to 250 nM

**Q.** COc1ncc(C)cc1S(=O)(=O)N1CCOC2(CCN(C3CCOCC3)C2)C1 (centres unmarked) [Example 16, 9-((2-Methoxy-5-methylpyridin-3-yl)sulfonyl)-2-(tetrahydro-2H-pyran-4-yl)-6-oxa-2,9-diazaspiro[4.5]decane] was tested. Which IC50 did it give?
**A.** 250 to 4000 nM

**Q.** Which IC50 does the source give for Cc1nc(C(F)(F)F)ccc1S(=O)(=O)N1CC2(CN(C(C)C3(C)COC3)C2)C1 (centres unmarked) [Example 132] here?
**A.** 100 to 250 nM

**Q.** Cc1nc(C(F)(F)F)ccc1S(=O)(=O)N1CC2(CN(C3CC4(CCO4)C3)C2)C1 (racemic) [Example 69, rac-2-((2-methyl-6-(trifluoromethyl)pyridin-3-yl)sulfonyl)-6-(1-oxaspiro[3.3]heptan-6-yl)-2,6-diazaspiro[3.3]heptane] was tested. Which IC50 did it give?
**A.** 250 to 4000 nM

**Q.** Which IC50 does the source give for O=S(=O)(c1ccc(OC(F)F)cc1)N1[C@@H]2CC[C@H]1CC1(C2)CN(C2CCOCC2)C1 [Example 61, (1′R,5′S)-8′-((4-(Difluoromethoxy)phenyl)sulfonyl)-1-(tetrahydro-2H-pyran-4-yl)-8′-azaspiro[azetidine-3,3′-bicyclo[3.2.1]octane]] here?
**A.** 100 to 250 nM

**Q.** For O=S(=O)(c1ccc(OC(F)F)cc1)N1CCOC2(CCN(C3CCOCC3)CC2)C1 [Example 5, 4-((4-(Difluoromethoxy)phenyl)sulfonyl)-9-(tetrahydro-2H-pyran-4-yl)-1-oxa-4,9-diazaspiro[5.5]undecane], which IC50 is on record?
**A.** 100 to 250 nM

**Q.** How did the IC50 turn out when CC(C)c1cc(S(=O)(=O)N2CC3(CN(C4CCOCC4)C3)C2)n(C)n1 [Example 189, 2-((3-isopropyl-1-methyl-1H-pyrazol-5-yl)sulfonyl)-6-(tetrahydro-2H-pyran-4-yl)-2,6-diazaspiro[3.3]heptane] was run?
**A.** < 100 nM

**Q.** Which IC50 does the source give for Cc1nc(C(F)(F)F)ccc1S(=O)(=O)N1CC2(CN(CC3CCCOC3)C2)C1 (centres unmarked) [Example 136] here?
**A.** 100 to 250 nM

**Q.** O=S(=O)(c1ccc(OC(F)F)cc1)N1CCOC2(CCN(C3CCOCC3)C2)C1 (racemic) [Example 2, 9-((4-(Difluoromethoxy)phenyl)sulfonyl)-2-(tetrahydro-2H-pyran-4-yl)-6-oxa-2,9-diazaspiro[4.5]decane] was tested. Which IC50 did it give?
**A.** 100 to 250 nM

**Q.** How did the IC50 turn out when COc1cc(C)c(S(=O)(=O)N2CC3(CN(C4CCOCC4)C3)C2)cn1 [Example 168, 2-((6-methoxy-4-methylpyridin-3-yl)sulfonyl)-6-(tetrahydro-2H-pyran-4-yl)-2,6-diazaspiro[3.3]heptane] was run?
**A.** 250 to 4000 nM

**Q.** Which IC50 does the source give for Cn1nc(C(F)(F)F)cc1S(=O)(=O)N1CC2(CN(C3CCOCC3)C2)C1 [Example 46, 2-((1-Methyl-3-(trifluoromethyl)-1H-pyrazol-5-yl)sulfonyl)-6-(tetrahydro-2H-pyran-4-yl)-2,6-diazaspiro[3.3]heptane] here?
**A.** 100 to 250 nM

**Q.** Cc1nc(C(C)(F)F)ccc1S(=O)(=O)N1CC2(CN(CC3CCOCC3)C2)C1 [Example 81] was tested. Which IC50 did it give?
**A.** < 100 nM

**Q.** With O=S(=O)(c1ccc(OC(F)F)cc1)N1CC2(CCN(C3CCOCC3)C2)C1 [Example 54] as the compound, how does the IC50 read?
**A.** 100 to 250 nM

**Q.** For CCc1nc(C(F)F)ccc1S(=O)(=O)N1CC2(CN(C3CC4(COC4)C3)C2)C1 [Example 206, 2-((6-(difluoromethyl)-2-ethylpyridin-3-yl)sulfonyl)-6-(2-oxaspiro[3.3]heptan-6-yl)-2,6-diazaspiro[3.3]heptane], which IC50 is on record?
**A.** 100 to 250 nM

**Q.** Which IC50 does the source give for Cc1cc(C(F)(F)F)ncc1S(=O)(=O)N1CC2(CN(CC3CCOCC3)C2)C1 [Example 217, 2-((4-methyl-6-(trifluoromethyl)pyridin-3-yl)sulfonyl)-6-((tetrahydro-2H-pyran-4-yl)methyl)-2,6-diazaspiro[3.3]heptane] here?
**A.** < 100 nM

**Q.** O=S(=O)(c1cccnc1C(F)(F)F)N1CC2(CN(CC3CCOCC3)C2)C1 [Example 201, 2-((tetrahydro-2H-pyran-4-yl)methyl)-6-((2-(trifluoromethyl)pyridin-3-yl)sulfonyl)-2,6-diazaspiro[3.3]heptane] was tested. Which IC50 did it give?
**A.** 250 to 4000 nM

**Q.** COC(CN1CC2(C1)CN(S(=O)(=O)c1ccc(C(F)(F)F)nc1C)C2)C1CC1 (centres unmarked) [Example 178] was tested. Which IC50 did it give?
**A.** 250 to 4000 nM

**Q.** With Cc1nc(C(F)(F)F)ccc1S(=O)(=O)N1CC2(CN(C[C@H]3[C@H](C#N)C3(C)C)C2)C1 (racemic) [Example 174] as the compound, how does the IC50 read?
**A.** 100 to 250 nM

**Q.** Cc1nc(C(F)(F)F)ccc1S(=O)(=O)N1CC2(C1)CN([C@H]1C[C@@]3(CCO3)C1)C2 [Example 71, 2-((2-methyl-6-(trifluoromethyl)pyridin-3-yl)sulfonyl)-6-((4r,6r)-1-oxaspiro[3.3]heptan-6-yl)-2,6-diazaspiro[3.3]heptane] was tested. Which IC50 did it give?
**A.** 100 to 250 nM

**Q.** N#Cc1cc(C(F)(F)F)ccc1S(=O)(=O)N1CC2(CN(CC3CCOCC3)C2)C1 [Example 228, 2-((6-((tetrahydro-2H-pyran-4-yl)methyl)-2,6-diazaspiro[3.3]heptan-2-yl)sulfonyl)-5-(trifluoromethyl)benzonitrile] was tested. Which IC50 did it give?
**A.** 250 to 4000 nM

**Q.** How did the IC50 turn out when Cn1nc(C(F)(F)F)cc1S(=O)(=O)N1CC2(CN(CC3CCOC(C)(C)C3)C2)C1 (racemic) [Example 198, rac-2-((2,2-dimethyltetrahydro-2H-pyran-4-yl)methyl)-6-((1-methyl-3-(trifluoromethyl)-1H-pyrazol-5-yl)sulfonyl)-2,6-diazaspiro[3.3]heptane] was run?
**A.** < 100 nM
